Reference: patent US20240327463A1, “ANTIBACTERIAL PRODUCTS” (priority 2017, published 2024)
≈ marks a conversion by molar mass, not a printed value. Bridge positions count the residues as written; N and C are the ends. Square brackets hold non-standard residues; d marks the D form. Peptide text beside a SMILES is read from it. * marks the point of attachment. dNMeF = CN[C@H](Cc1ccccc1)C(=O)O; X1 = NCC(CN)OC(=O)*

Key:
Mycobacterium smegmatis = type: cell-based
Experimental: Bacteria were grown on Mueller Hinton broth (oxoid). All incubations were at 37° C. Dilutions were carried out using Mueller Hinton. […] This process was repeated up to well 11. […] This was repeated three times. […] Results are tabulated in the Examples.

MRSA ATCC 33591 = conditions: ATCC 33591
How it was run: (§1)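 Each peptide, taken up in DMSO, is diluted stepwise by halves in Mueller Hinton broth (highest level 512 μg/ml). Plates incubate 24 hours at 37° C. The MIC is read as the lowest concentration lacking visible growth, with triplicate repeats.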

M. smegmatis ATCC 607 = assay: microbe, parasite or virus in culture; conditions: ATCC 607
How it was run: as §1

VRE ATCC 29212 = assay: microbe, parasite or virus in culture; conditions: ATCC 29212
How it was run: as §1

[1] = tested on: Staphylococcus aureus ATCC 29213; assay: microbe, parasite or virus in culture; conditions: ATCC 29213
How it was run: as §1

MRSA ATCC 700699 = assay: microbe, parasite or virus in culture; conditions: ATCC 700699
How it was run: as §1

MRSA DR 42412 (sputum) = assay: microbe, parasite or virus in culture; conditions: DR 42412 (sputum)
How it was run: as §1

VRE ATCC 700802 = assay: microbe, parasite or virus in culture; conditions: ATCC 700802
How it was run: as §1

MRSA DM21455 (eye) = assay: microbe, parasite or virus in culture; conditions: DM21455 (eye)
How it was run: as §1

[2] = tested on: Staphylococcus aureus ATCC 29213; conditions: reported for a teixobactin analogue; cited from earlier work

| Compound | MIC (μg/mL) Mycobacterium smegmatis (Mycobacterium smegmatis) [µg/mL] | MIC (MRSA*) (MRSA ATCC 33591) [µg/mL] | MIC (M. smegmatis ATCC 607) [µg/mL] | MIC (VRE ATCC 29212) [µg/mL] | MBC [1] [µg/mL] | MIC [1] [µg/mL] | MBC (MRSA ATCC 700699) [µg/mL] | MIC (MRSA ATCC 700699) [µg/mL] | MBC (MRSA DR 42412 (sputum)) [µg/mL] | MIC (MRSA DR 42412 (sputum)) [µg/mL] | MIC (VRE ATCC 700802) [µg/mL] | MBC (MRSA DM21455 (eye)) [µg/mL] | MIC (MRSA DM21455 (eye)) [µg/mL] | reported MIC against Staphylococcus aureus ATCC 29213 [2] [µg/mL] |
| --- | --- | --- | --- | --- | --- | --- | --- | --- | --- | --- | --- | --- | --- | --- |
| CC[C@@H](C)[C@@H](NC(=O)[C@@H](CCC(N)=O)NC(=O)[C@H](CO)NC(=O)[C@@H](NC(=O)[C@@H](Cc1ccccc1)NC)[C@@H](C)CC)C(=O)N[C@H](C(=O)N[C@@H](CO)C(=O)N[C@H]1C(=O)N[C@@H](C)C(=O)N[C@@H](C)C(=O)N[C@@H]([C@@H](C)CC)C(=O)O[C@H]1C)[C@@H](C)CC [Compound 14] | 2 (≈ 1.73 µM) | 1 to 2 | 1 to 2 | 4 (≈ 3.45 µM) | 2 (≈ 1.73 µM) | 1 (≈ 0.863 µM) | 16 (≈ 13.8 µM) | 4 (≈ 3.45 µM) | 4 (≈ 3.45 µM) | 1 (≈ 0.863 µM) | 4 (≈ 3.45 µM) | 2 (≈ 1.73 µM) | 1 (≈ 0.863 µM) |  |
| CC[C@@H](C)[C@@H](NC(=O)[C@@H](CCC(N)=O)NC(=O)[C@H](CO)NC(=O)[C@@H](NC(=O)[C@@H](Cc1ccccc1)NC)[C@@H](C)CC)C(=O)N[C@H](C(=O)N[C@@H](CO)C(=O)N[C@H]1C(=O)N[C@@H](C)C(=O)N[C@@H](CCCCNC(=O)OC(CN)CN)C(=O)N[C@@H]([C@@H](C)CC)C(=O)O[C@H]1C)[C@@H](C)CC [Compound 21, Diamino10-Teixobactin] (H-[dNMeF]IS[dQ][dI]IS[dT]AK(X1)I; ester 8-C) | 0.5 (≈ 0.375 µM) | 0.25 (≈ 0.188 µM) |  |  |  |  |  |  |  |  |  |  |  |  |
| Lys3-D-Lys4-Lys10-teixobactin |  |  |  |  |  |  |  |  |  |  |  |  |  | 8 |
